Assay in all cases: growth of human tumour cells (NCI), 48 h
Assay [1] deals with A498 renal.
Assay [2] relates to DU-145 prostate.
For assay [3], the system named is HOP-92 NSCLC.
Assay [4] concerns HT29 colon.
Assay [5] concerns NCI-H226 lung.
Assay [6] concerns NCI-H23 lung.
Assay [7] relates to NCI-H522 lung.
For assay [8], the system named is SK-MEL-28 melanoma.
Assay [9] has as its system SW-620 colon.
Assay [10] relates to TK-10 renal.

The structures appear in SMILES notation.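 Five compound concentrations were applied to cells in 96-well plates for 48 hours; endpoints were derived by simple linear interpolation of the resulting dose-response curve. GI50 marks 50% less growth. TGI denotes the concentration required for complete inhibition of growth.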 A value given as a limit tells only on which side of the number the result lay.

On to `CCOC(=O)/C(=C(/C)NCC(C)C)c1cc(O)c(O)c2c(C)cc(=O)[nH]c12`, for which the GI50 in assay [1] was 8.31 µM; in assay [2], 10.5 µM; in assay [3] it was 9.51 µM; in assay [4], over 100 µM; in [5] it was 10.6 µM; in assay [6], 5.48 µM. Besides, the GI50 in assay [7] is 3.02 µM; in assay [8] it was 34.7 µM; in assay [9], 4.95 µM; in assay [10] it was 9.18 µM. For the same compound, the TGI in assay [1] is 29.7 µM; in assay [2], over 100 µM; in [3], 45 µM; in [4] it was over 100 µM; in assay [5] it was over 100 µM; in [6], over 100 µM. Besides, the TGI in assay [7] was 51.6 µM; in [8], over 100 µM; in assay [9] it was over 100 µM; in [10] it was 68.3 µM.
Take `CC(=O)C1(N=Nc2ccc(S(N)(=O)=O)cc2)CCOC1=O` (centres undefined): the TGI in [1], in [2], in assay [3], in [4], in assay [5] and in assay [6] was over 100 µM in each case. Besides, the TGI in assay [7], in assay [8], in assay [9] and in assay [10] was over 100 µM each time.
On to `COc1ccc(-c2c(-c3cc(OC)c(OC)c(OC)c3)noc2N)cc1`, for which the GI50 was under 0.01 µM in [1]; 0.0187 µM in [2]; under 0.01 µM in assay [3]; under 0.0144 µM in assay [4]; 0.0244 µM in assay [5]; 0.0198 µM in assay [6]. For the same compound, the GI50 in assay [7] is under 0.01 µM; in assay [8] it was 0.016 µM; in [9], under 0.01 µM; in [10], 0.461 µM. Further, the TGI in assay [1] was 4.37 µM; in [2], 1.32 µM; in [3], over 100 µM; in assay [4], 0.796 µM; in assay [5] it was over 100 µM; in assay [6], 30 µM. Besides, the results for the TGI in [8], in [9] and in assay [10] were over 100 µM, over 100 µM and over 56.5 µM, respectively.
Turning to `S=c1nc(Cl)cc2[nH]c(Cl)cn12`, the TGI was 56.9 µM in assay [1]; over 100 µM in [2]; 96.9 µM in [3]; 75.3 µM in assay [4]; over 100 µM in assay [5]; 48.8 µM in [6]. For the same compound, the TGI in [7] is 6.22 µM; in assay [8], over 100 µM; in assay [9], over 100 µM; in assay [10], over 100 µM.
As to `N#CS.N=C=S.N=C=S.[Cu+2].[NH2-].[NH2-].[NH2-].[NH2-].c1ccc2ncccc2c1`, the GI50 in assay [1] is 28.4 µM; in assay [2] it was 17.3 µM; in assay [3], over 100 µM; in assay [4], 60.7 µM; in assay [5], 28.3 µM; in assay [6] it was over 100 µM. For the same compound, the GI50 is 44.8 µM in assay [7], over 100 µM in assay [8], over 100 µM in [9] and 90 µM in [10]. Also, the TGI was 51 µM in assay [1]; 36.1 µM in [2]; over 100 µM in assay [3]; over 100 µM in assay [4]; 49.4 µM in assay [5]; over 100 µM in assay [6]. Also, the TGI in assay [7], in [8], in assay [9] and in [10] was over 100 µM each time.
Regarding `CCN(CC)CCCC(C)N=c1cc(Nc2cc(=NC(C)CCCN(CC)CC)c3cc(OC)ccc3o2)oc2ccc(OC)cc12` (centres undefined), the GI50 was 1.15 µM in assay [1]; 1.17 µM in assay [2]; 0.513 µM in [3]; 0.588 µM in [4]; 0.58 µM in assay [5]; 3.18 µM in assay [6]. Besides, the GI50 in assay [7] is 1.04 µM; in assay [8] it was 0.838 µM; in [9] it was 0.672 µM; in assay [10] it was 1.3 µM. Further, the TGI is 7.83 µM in assay [1]; 3.19 µM in assay [2]; 3.15 µM in assay [3]; 1.97 µM in assay [4]; 2.37 µM in assay [5]; 12.7 µM in assay [6]. In addition, the TGI came to 2.15 µM in [7], 1.52 µM in assay [8], 3.04 µM in assay [9] and 3.22 µM in assay [10].
On to `CC1=C([Te]c2ccc(O)cc2)C(=O)c2ccccc2C1=O`, for which the GI50 in assay [1] is 1.36 µM; in [2], 2.32 µM; in assay [3] it was 1.09 µM; in assay [4], 0.396 µM; in [5], 0.33 µM; in assay [6] it was 1.84 µM. Further, the GI50 was 2.16 µM in assay [7], 2.41 µM in [8], 1.47 µM in assay [9] and 2.67 µM in assay [10]. Further, the TGI in [1] was found to be 3.01 µM; in assay [2] it was 6.02 µM; in assay [3] it was 2.75 µM; in assay [4] it was 1.55 µM; in assay [5] it was 1.57 µM; in assay [6], 5.84 µM. For the same compound, the TGI in assay [7] turned out to be 7.31 µM; in assay [8] it was 6.09 µM; in [9], 3.15 µM; in [10], 7.6 µM.
On to `Nc1c(C(=O)c2ccc(CCCN3CCOCC3)cc2)cnn1-c1ccc(F)cc1`, for which the GI50 was over 14.5 µM in [1]; over 25 µM in assay [2]; 3.22 µM in assay [3]; over 25 µM in [4]; over 15.2 µM in [5]; over 25 µM in assay [6]. Besides, the GI50 in [7], in [8], in [9] and in assay [10] was over 25 µM each time. Moreover, the TGI in [1], in [2], in assay [3], in [4], in [5] and in assay [6] was over 25 µM each time. For the same compound, the TGI in [7], in assay [8], in assay [9] and in assay [10] was over 25 µM each time.

For the origin of these results see PubChem BioAssay (NCI).
